Laboratory results reported in patent US10183047B2, “Chromium-containing compositions in combination with Phyllanthus emblica and shilajit having synergistic effects for improving endothelial function and cardiovascular health” (Natreon, Inc., priority 2014, dated 2019).

Assays:
Type in all cases: in vivo, human
[1] = test system: nitric oxide (NO); assay: Nitric oxide level, metabolic syndrome subjects
Protocol: (§1) Nitric oxide, MDA, Glutathione and levels were estimated spectrophotometrically as follows. Malondialdehyde (MDA) levels were determined as described in Vidyasagar, et al., “Oxidative stress and antioxidant status in acute organophosphorous insecticide poisoning,” Indian J. Pharmacol. (April 2004) 36(2): 76-79. Glutathione levels were determined as described in G. L. Ellman, Arch. Biochem. Biophys. (1959) 82: 70-77 (original determination). Nitric oxide levels were estimated spectrophotometrically as described in Miranda, et al., “A Rapid, Simple Spectrophotometric Method for Simultaneous Detection of Nitrate and Nitrite,” NITRIC OXIDE: Biology and Chemistry (2001) Vol. 5, No. 1, pp. 62-71. hsCRP (high sensitivity C-reactive protein) was determined by ELISA method.
(§2) Patients included in the study, were of either gender, aged 30-68 years, having endothelial dysfunction defined as ≤6% change in reflection index (RI) on post salbutamol challenge test and central obesity as defined by The International Diabetes Federation guidelines, dated 2006, and any two of the following conditions:
(§3) After screening, all the eligible subjects were randomized to receive either one of the three treatments orally for duration of 12 weeks: group 1—one capsule of Crominex®3+ 200 mcg once daily; group 2—one capsule 400 mcg once daily; group 3—one capsule of Placebo once daily.
(§4) Subjects were reviewed for follow up at 4 weeks, 8 and 12 weeks of therapy. At each visit they were evaluated for efficacy and safety. Pharmacodynamic evaluation for endothelial function was conducted at baseline and end of treatment. Blood samples were collected for evaluation of biomarkers before and at end of treatment. Safety lab investigations for hematological, hepatic and renal biochemical parameters were conducted before and at the end of the study and also as and when required (in case of any adverse drug reaction (ADR)). Subjects were enquired for the presence of ADR and the same was recorded in the case report form. Compliance to therapy was assessed by pill count method.
(§5) Assessment of endothelial function, biomarkers, safety parameters and primary and secondary efficacy parameters and data analysis were performed as described under the study with type 2 diabetic subjects in Example 1.
(§6) When the results with Crominex® 3+ in the above two examples were highly significant, especially with the 400 mcg once daily dose in type 2 diabetics, two more clinical studies (EXAMPLES 3 & 4) were conducted at the same institute, following the same methodology as described earlier, on the individual components of Crominex® 3+, i.e., chromium chloride and Phyllanthus emblica+Shilajit, and other chromium supplements available in the market, i.e., chromium picolinate, chromium polynicotinate and chromium dinicocysteinate, in type 2 diabetics as well as in subjects with metabolic syndrome symptoms.

[2] = test system: nitric oxide (NO); assay: Nitric oxide level, spectrophotometric, type 2 diabetics
Protocol: (§7) The present clinical study is a prospective, randomized, double blind, placebo-controlled study. Patients of either sex, aged 30-65 years, fasting plasma glucose of 110-126 mg/dl, a glycosylated hemoglobin (HbA1c) between 6.5% and 8% and taking stable dose of anti-diabetic treatment (metformin 1500-2000 mg/day) for the past 8 weeks prior to the screening visit; and having endothelial dysfunction defined as ≤6% change in reflection index (RI) on post salbutamol challenge test were included in the study. Patients with severe uncontrolled hyperglyceamia, uncontrolled hypertension, cardiac arrhythmia, impaired hepatic or renal function, history of malignancy or stroke, smoking, chronic alcoholism, any other serious disease requiring active treatment and treatment with any other herbal supplements, were excluded from the study.
(§8) After screening, all the eligible subjects were randomized to receive either one of the three treatments orally for duration of 12 weeks—Group1—one capsule of Crominex®3+, 200 mcg once daily, Group 2—one capsule Crominex®3+, 400 mcg once daily; Group 3—one capsule of placebo once daily.
as §4, with “Subjects were required for follow” for “Subjects were reviewed for follow”, “up at 4, 8 and” for “up at 4 weeks, 8 and”, “conducted at every visit. Blood samples” for “conducted at baseline and end of treatment. Blood samples”, “and at the end of” for “and at end of”, “drug reaction (ADR). Subjects were” for “drug reaction (ADR)). Subjects were”
as §1, §6

[3] = test system: lipid profile; assay: Lipid profile (TC, HDL-C, LDL-C, TG, VLDL-C), type 2 diabetics
Protocol: as §7, §8
as §4, with “Subjects were required for follow” for “Subjects were reviewed for follow”, “up at 4, 8 and” for “up at 4 weeks, 8 and”, “conducted at every visit. Blood samples” for “conducted at baseline and end of treatment. Blood samples”, “and at the end of” for “and at end of”, “drug reaction (ADR). Subjects were” for “drug reaction (ADR)). Subjects were”
(§9) All the subjects had undergone complete physical examination, safety lab evaluations at baseline and at the end of the treatment. Samples were collected after an overnight fast of 12 hrs after the last dose of medication for determination of hemoglobin, glycosylated hemoglobin (HbA1c), blood urea, serum creatinine, liver function, lipid profile (Total cholesterol, High density lipoprotein cholesterol (HDL-C), low density lipoprotein cholesterol (LDL-C) using appropriate standard techniques.
as §6

[4] = test system: glutathione (GSH); assay: Glutathione level, metabolic syndrome subjects
Protocol: as §1, §2, §3, §4, §5, §6

[5] = test system: fasting plasma glucose; assay: Fasting plasma glucose, metabolic syndrome subjects
From the text: as §2, §3, §4, §6

[6] = test system: fasting plasma glucose; assay: Fasting plasma glucose, type 2 diabetics
Protocol: as §6

[7] = test system: lipid profile; assay: Lipid profile (TC, HDL-C, LDL-C, TG), metabolic syndrome subjects
From the text: as §9
as §2, with “conditions: […]” for “conditions:”
as §4, §5, §6

[8] = metabolic syndrome subjects (Example 4), chromium products 400 mcg, after 12 weeks of treatment
[9] = metabolic syndrome subjects (Example 4), chromium products 400 mcg, after 12 weeks treatment
[10] = metabolic syndrome subjects (Example 4), chromium products 400 mcg, pre-treatment
[11] = type 2 diabetics (Example 3), chromium products 400 mcg, post-treatment, 12 weeks
[12] = type 2 diabetics (Example 3), chromium products 400 mcg, pre-treatment
[13] = type 2 diabetics (Example 3), chromium products 400 mcg, 12 weeks of treatment

**Q.** With chromium dinicocysteinate as the substance, how does the NO ([1]; MS, 400 mcg) read?
**A.** 7.68%

**Q.** What about the “NO Post Tt” value [1, 8] of the same substance?
**A.** 32.66 ± 3.88 μM/L

**Q.** What about the “Mean percentage change in NO” value [1, 9] of the same substance?
**A.** 7.68 ± 2.25%

**Q.** What about the “NO Pre Tt” value [1, 10] of the same substance?
**A.** 30.33 ± 3.58 μM/L

**Q.** And the NO ([2]; DM, 400 mcg)?
**A.** 7.08%

**Q.** And the “Mean percentage change in NO” value ([2]; type 2 diabetics (Example 3), chromium products 400 mcg, 12 week treatment)?
**A.** 7.08 ± 2.40@NS %

**Q.** And the “NO Post Tt” value [2, 11]?
**A.** 30.91 ± 2.87 μM/L

**Q.** And the “NO Pre Tt” value [2, 12]?
**A.** 28.88 ± 2.72 μM/L

**Q.** What about the HDL ([3]; DM, 400 mcg) of the same substance?
**A.** 1.19%

**Q.** What about the LDL ([3]; DM, 400 mcg) of the same substance?
**A.** −0.81%

**Q.** And the TC ([3]; DM, 400 mcg)?
**A.** −0.38%

**Q.** What about the TG ([3]; DM, 400 mcg) of the same substance?
**A.** −0.37%

**Q.** And the “Mean percentage change in HDL-C” value [3, 13]?
**A.** 1.19 ± 4.01 NS %

**Q.** What about the “Mean percentage change in LDL-C” value [3, 13] of the same substance?
**A.** −0.81 ± 1.52 $NS %

**Q.** And the “Mean percentage change in Total Cholesterol” value [3, 13]?
**A.** −0.38 ± 0.86 #NS %

**Q.** What about the “Mean percentage change in Triglycerides” value [3, 13] of the same substance?
**A.** −0.37 ± 0.92 NS %

**Q.** What about the “HDL-C Post Tt” value [3, 11] of the same substance?
**A.** 37.83 ± 2.90 NS mg/dl

**Q.** What about the “LDL-C Post Tt” value [3, 11] of the same substance?
**A.** 128.91 ± 16.46 $^ mg/dl

**Q.** What about the “Total Cholesterol Post Tt” value [3, 11] of the same substance?
**A.** 201.28 ± 17.29 NS mg/dl

**Q.** What about the “Triglycerides Post Tt” value [3, 11] of the same substance?
**A.** 172.67 ± 3.88 NS mg/dl

**Q.** What about the “HDL-C Pre Tt” value [3, 12] of the same substance?
**A.** 37.39 ± 2.43 mg/dL

**Q.** What about the “LDL-C Pre Tt” value [3, 12] of the same substance?
**A.** 130.00 ± 16.71 mg/dL

**Q.** And the “Total Cholesterol Pre Tt” value [3, 12]?
**A.** 202.06 ± 17.48 mg/dL

**Q.** What about the “Triglycerides Pre Tt” value [3, 12] of the same substance?
**A.** 173.33 ± 4.83 mg/dL

**Q.** What about the GSH ([4]; MS, 400 mcg) of the same substance?
**A.** 5.4%

**Q.** And the “GSH Post Tt” value [4, 8]?
**A.** 558.38 ± 33.94 μM/L

**Q.** What about the “Mean percentage change in GSH” value [4, 9] of the same substance?
**A.** 5.41 ± 1.38%

**Q.** And the “GSH Pre Tt” value [4, 10]?
**A.** 529.89 ± 33.97 μM/L

**Q.** What about the “Fasting Glucose” value ([5]; MS, 400 mcg) of the same substance?
**A.** −2.18%

**Q.** And the “Fasting Plasma Glucose Post Tt” value [5, 8]?
**A.** 99.50 ± 17.60 NS

**Q.** And the “Fasting Plasma Glucose Pre Tt” value [5, 10]?
**A.** 101.72 ± 21.41

**Q.** What about the “Fasting Glucose” value ([6]; DM, 400 mcg) of the same substance?
**A.** −3.2%

**Q.** And the “Fasting Plasma Glucose Post Tt” value [6, 11]?
**A.** 132.3 ± 4.41 $ mg/dL

**Q.** And the “Fasting Plasma Glucose Pre Tt” value [6, 12]?
**A.** 136.8 ± 6.99^ mg/dL

**Q.** And the HDL ([7]; MS, 400 mcg)?
**A.** −0.71%

**Q.** What about the LDL ([7]; MS, 400 mcg) of the same substance?
**A.** 2.11%

**Q.** And the TC ([7]; MS, 400 mcg)?
**A.** 1.4%

**Q.** And the TG ([7]; MS, 400 mcg)?
**A.** 1.04%

**Q.** What about the LDL-C, mean percentage change ([7]; mean percentage change after 12 weeks of treatment, 400 mcg, Example 4) of the same substance?
**A.** 2.11%

**Q.** What about the “HDL-C Post Tt” value [7, 8] of the same substance?
**A.** 36.61 ± 5.67 NS mg/dl

**Q.** What about the “LDL-C Post Tt” value [7, 8] of the same substance?
**A.** 113.64 ± 14.96 mg/dL

**Q.** And the “Mean percentage change in HDL-C” value [7, 8]?
**A.** −0.71 ± 3.95%

**Q.** What about the “Mean percentage change in Total Cholesterol” value [7, 8] of the same substance?
**A.** 1.40 ± 1.03%

**Q.** And the “Mean percentage change in Triglycerides” value [7, 8]?
**A.** 1.04 ± 1.06%

**Q.** What about the “Total Cholesterol Post Tt” value [7, 8] of the same substance?
**A.** 184.50 ± 12.49 mg/dL

**Q.** And the “Triglycerides Post Tt” value [7, 8]?
**A.** 171.22 ± 6.92 mg/dL

**Q.** What about the “HDL-C Pre Tt” value [7, 10] of the same substance?
**A.** 36.83 ± 5.22 mg/dL

**Q.** And the “LDL-C Pre Tt” value [7, 10]?
**A.** 111.22 ± 14.34 mg/dL

**Q.** And the “Total Cholesterol Pre Tt” value [7, 10]?
**A.** 181.94 ± 12.10 mg/dL

**Q.** What about the “Triglycerides Pre Tt” value [7, 10] of the same substance?
**A.** 169.44 ± 6.24 mg/dL
